Measured values from patent US20180305524A1, “Inulin Nanofibers” (The American University in Cairo, priority 2014, published 2018).

What was measured:
[1] = test system: gut bifidobacteria; details: IBS patients; cited from earlier work
[2] = test system: Lactobacillus sp.; assay: Prebiotic activity with Lactobacillus sp. culture (total viable count, pH, optical density after 24 hours incubation); assay type: cell-based
Protocol: (§1) Polyvinyl Alcohol (PVA)/Inulin nanofibers are manufactured using electrospinning technique and tested for their prebiotic activity with Lactobacillus sp. and antibacterial activity with E. coli and S. aureus. After characterization and cross-linking of the produced PVA/Inulin Electrospun composite nanofibers (CNF), they were tested for their prebiotic activity with Lactobacillus sp. by viable count, optical density, pH and growth curve, and antibacterial activity with E. coli and S. aureus, by the cork-borer method, measuring the inhibition zone and the inhibition curve.
FIGS. 2A-C show according to an exemplary embodiment of the invention in FIG. 2A Total viable count, FIG. 2B pH, and FIG. 2C Optical density of Lactobacillus sp. culture containing PVA electrospun Nanofibers, inulin solution, PVA/Inulin electrospun CNFs, and water after 24 hours of incubation.
Prebiotic activity was carried out using Lactobacillus sp. to assess the growth activity by calculating the i) total viable counts, ii) pH, iii) optical density (OD), and iv) growth curve.
The pH and the OD of the culture inoculated with the tested material were measured before incubation and after 24 hours incubation. PVA/Inulin electrospun CNFs solution decreased the pH to 5.7 compared to 6.3 for the control.

[3] = test system: bifidobacteria and lactobacillus; details: in vitro; cited from earlier work
[4] = test system: S. aureus; assay: Antibacterial activity, cork-borer method, inhibition zone with S. aureus; assay type: cell-based
Protocol: as §1
(§2) FIGS. 4A-B show according to an exemplary embodiment of the invention in FIG. 4A an inhibition zone of PVA electrospun Nanofibers, inulin solution, PVA/Inulin electrospun CNFs, antibiotic and water with E. coli, in FIG. 4B an inhibition zone of PVA electrospun Nanofibers, inulin solution, PVA/Inulin electrospun CNFs, antibiotic and water with S. aureus.

[5] = test system: E. coli; assay: Antibacterial activity, cork-borer method, inhibition zone with E. coli; assay type: cell-based
Protocol: as §1, §2

[6] = test system: Bifidobacterium bifidum culture; details: inulin extracted from artichoke; cited from earlier work

In the case of galactooligosaccharides, the “effectiveness as a prebiotic” value [1] is given as “effective as a prebiotic”.

In the case of inulin [inulin solution], the “pH of the culture” value ([2]; after 24 hours incubation, control 6.3) is listed as 6.2, the “lactobacillus growth (total viable count)” value ([2]; after 24 hours of incubation) is listed as 2.9×10^3 cfu/mL and the prebiotic effectiveness [3] is listed as “clear prebiotic effectiveness”. For the same substance, the inhibition zone [4] was “didn't show any visible zone of inhibition”, the inhibition zone [5] was “didn't show any visible zone of inhibition” and the “growth of B. bifidum” value [6] was “increased the growth”.

In the case of oligofructose [oligofructose (OF)], the prebiotic effectiveness [3] is given as “clear prebiotic effectiveness”.
